From PubChem BioAssay AID2060623 (Molecular Pharmacology Branch, DTP, NCI, 2025)

Test system: 227483-062-R1-J1-PDC complex spheroids with HUVEC/MSC, viability
Test: Anticancer human tumor 227483-062-R1-J1-PDC patient-derived pancreatic carcinoma cell line growth inhibition [CLK]
Conditions: for IC50: curve of first compound; for viability, T/C: stronger effect = lower value
Procedure, shortened: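 Multi-cell-type spheroids combined patient-derived tumor cells with HUVEC endothelial cells and human mesenchymal stem cells. Paired agents were dosed in half-log steps down from about clinical Cmax, or from 10 microM where Cmax was unknown.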

[1] = second compound 0.0316 µM, first compound 0.0316 µM
[2] = second compound 0.0316 µM, first compound 0.1 µM
[3] = second compound 0.1 µM, first compound 0.0316 µM
[4] = second compound 0.1 µM, first compound 0.1 µM
[5] = second compound 0.316 µM, first compound 0.0316 µM
[6] = second compound 0.316 µM, first compound 0.1 µM
[7] = second compound 1 µM, first compound 0.0316 µM
[8] = second compound 1 µM, first compound 0.1 µM
[9] = second compound 3.16 µM, first compound 0.0316 µM
[10] = second compound 3.16 µM, first compound 0.1 µM
[11] = second compound 10 µM, first compound 0.0316 µM
[12] = second compound 10 µM, first compound 0.1 µM
[13] = second compound 0.0316 µM, first compound 0.316 µM
[14] = second compound 0.0316 µM, first compound 1 µM
[15] = second compound 0.0316 µM, first compound 3.16 µM
[16] = second compound 0.0316 µM, first compound 10 µM
[17] = second compound 0.1 µM, first compound 0.316 µM
[18] = second compound 0.1 µM, first compound 1 µM
[19] = second compound 0.1 µM, first compound 3.16 µM
[20] = second compound 0.1 µM, first compound 10 µM
[21] = second compound 0.316 µM, first compound 0.316 µM
[22] = second compound 0.316 µM, first compound 1 µM
[23] = second compound 0.316 µM, first compound 3.16 µM
[24] = second compound 0.316 µM, first compound 10 µM
[25] = second compound 1 µM, first compound 0.316 µM
[26] = second compound 1 µM, first compound 1 µM
[27] = second compound 1 µM, first compound 3.16 µM
[28] = second compound 1 µM, first compound 10 µM
[29] = second compound 3.16 µM, first compound 0.316 µM
[30] = second compound 3.16 µM, first compound 1 µM
[31] = second compound 3.16 µM, first compound 3.16 µM
[32] = second compound 3.16 µM, first compound 10 µM
[33] = second compound 10 µM, first compound 0.316 µM
[34] = second compound 10 µM, first compound 1 µM
[35] = second compound 10 µM, first compound 3.16 µM
[36] = second compound 10 µM, first compound 10 µM
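Further: spheroids exposed to compounds for seven days before readout.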
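Wherever viability, T/C is given: percent of DMSO vehicle control luminescence as 100% viability.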

How did the IC50 (second compound 0.0316 µM) turn out when Cn1ncnc1[C@H]1c2n[nH]c(=O)c3cc(F)cc(c23)N[C@@H]1c1ccc(F)cc1 + CN1CCN(c2cc(C(=O)Nc3cc4cc(-c5cnn(C)c5)ccc4cn3)ccn2)CC1 was run?
The IC50 was greater than 100 nM.

And the IC50 (second compound 0.1 µM)?
Its IC50 is greater than 100 nM.

And the IC50 (second compound 0.316 µM)?
The IC50 was less than 0.316 nM.

And the IC50 (second compound 1 µM)?
Its IC50 is less than 0.316 nM.

What about the IC50 (second compound 3.16 µM) of the same molecule?
The IC50 was less than 0.316 nM.

And the IC50 (second compound 10 µM)?
The IC50 was less than 0.316 nM.

And the viability, T/C (second compound 0.0316 µM, first compound 0.000316 µM)?
Its viability, T/C is 114%.

What about the viability, T/C (second compound 0.0316 µM, first compound 0.001 µM) of the same molecule?
The viability, T/C was 118%.

And the viability, T/C (second compound 0.0316 µM, first compound 0.00316 µM)?
Its viability, T/C is 114%.

What about the viability, T/C (second compound 0.0316 µM, first compound 0.01 µM) of the same molecule?
Its viability, T/C is 101%.

What about the viability, T/C [1] of the same molecule?
The viability, T/C was 95.3%.

And the viability, T/C [2]?
The viability, T/C was 92.3%.

And the viability, T/C (second compound 0.1 µM, first compound 0.000316 µM)?
The viability, T/C was 44.2%.

What about the viability, T/C (second compound 0.1 µM, first compound 0.001 µM) of the same molecule?
The viability, T/C was 66.2%.

And the viability, T/C (second compound 0.1 µM, first compound 0.00316 µM)?
The viability, T/C was 53.6%.

What about the viability, T/C (second compound 0.1 µM, first compound 0.01 µM) of the same molecule?
The viability, T/C was 53.5%.

And the viability, T/C [3]?
Its viability, T/C is 56.3%.

What about the viability, T/C [4] of the same molecule?
Its viability, T/C is 54.8%.

What about the viability, T/C (second compound 0.316 µM, first compound 0.000316 µM) of the same molecule?
The viability, T/C was 3.12%.

What about the viability, T/C (second compound 0.316 µM, first compound 0.001 µM) of the same molecule?
Its viability, T/C is 3.26%.

And the viability, T/C (second compound 0.316 µM, first compound 0.00316 µM)?
The viability, T/C was 3.58%.

What about the viability, T/C (second compound 0.316 µM, first compound 0.01 µM) of the same molecule?
The viability, T/C was 4.15%.

And the viability, T/C [5]?
Its viability, T/C is 3.29%.

And the viability, T/C [6]?
The viability, T/C was 4.45%.

What about the viability, T/C (second compound 1 µM, first compound 0.000316 µM) of the same molecule?
Its viability, T/C is 1.25%.

And the viability, T/C (second compound 1 µM, first compound 0.001 µM)?
Its viability, T/C is 1.34%.

What about the viability, T/C (second compound 1 µM, first compound 0.00316 µM) of the same molecule?
The viability, T/C was 1.34%.

What about the viability, T/C (second compound 1 µM, first compound 0.01 µM) of the same molecule?
Its viability, T/C is 2.07%.

What about the viability, T/C [7] of the same molecule?
The viability, T/C was 1.23%.

What about the viability, T/C [8] of the same molecule?
The viability, T/C was 1.14%.

What about the viability, T/C (second compound 3.16 µM, first compound 0.000316 µM) of the same molecule?
The viability, T/C was 1.84%.

What about the viability, T/C (second compound 3.16 µM, first compound 0.001 µM) of the same molecule?
The viability, T/C was 2.14%.

What about the viability, T/C (second compound 3.16 µM, first compound 0.00316 µM) of the same molecule?
The viability, T/C was 1.91%.

And the viability, T/C (second compound 3.16 µM, first compound 0.01 µM)?
Its viability, T/C is 2.43%.

What about the viability, T/C [9] of the same molecule?
Its viability, T/C is 1.6%.

And the viability, T/C [10]?
Its viability, T/C is 1.89%.

And the viability, T/C (second compound 10 µM, first compound 0.000316 µM)?
Its viability, T/C is 1.14%.

What about the viability, T/C (second compound 10 µM, first compound 0.001 µM) of the same molecule?
The viability, T/C was 1.09%.

What about the viability, T/C (second compound 10 µM, first compound 0.00316 µM) of the same molecule?
Its viability, T/C is 1.63%.

And the viability, T/C (second compound 10 µM, first compound 0.01 µM)?
Its viability, T/C is 2.37%.

And the viability, T/C [11]?
Its viability, T/C is 1.2%.

And the viability, T/C [12]?
Its viability, T/C is 1%.

Which IC50 (second compound 0.0316 µM) does the source give for Nc1ccn(C2OC(CO)C(O)C2(F)F)c(=O)n1 (stereo unspecified) + CN1CCN(c2cc(C(=O)Nc3cc4cc(-c5cnn(C)c5)ccc4cn3)ccn2)CC1 here?
The IC50 was 72.5 nM.

And the IC50 (second compound 0.1 µM)?
Its IC50 is less than 31.6 nM.

What about the IC50 (second compound 0.316 µM) of the same molecule?
Its IC50 is less than 31.6 nM.

What about the IC50 (second compound 1 µM) of the same molecule?
Its IC50 is less than 31.6 nM.

And the IC50 (second compound 3.16 µM)?
The IC50 was less than 31.6 nM.

And the IC50 (second compound 10 µM)?
The IC50 was less than 31.6 nM.

What about the viability, T/C [1] of the same molecule?
The viability, T/C was 76%.

What about the viability, T/C [2] of the same molecule?
Its viability, T/C is 39%.

What about the viability, T/C [13] of the same molecule?
Its viability, T/C is 32.1%.

And the viability, T/C [14]?
The viability, T/C was 35.6%.

What about the viability, T/C [15] of the same molecule?
Its viability, T/C is 27.6%.

And the viability, T/C [16]?
The viability, T/C was 24.1%.

What about the viability, T/C [3] of the same molecule?
The viability, T/C was 36.7%.

And the viability, T/C [4]?
The viability, T/C was 25.1%.

And the viability, T/C [17]?
Its viability, T/C is 24.1%.

What about the viability, T/C [18] of the same molecule?
Its viability, T/C is 21%.

What about the viability, T/C [19] of the same molecule?
The viability, T/C was 22.5%.

What about the viability, T/C [20] of the same molecule?
Its viability, T/C is 15%.

And the viability, T/C [5]?
Its viability, T/C is 4.9%.

What about the viability, T/C [6] of the same molecule?
The viability, T/C was 3.69%.

And the viability, T/C [21]?
The viability, T/C was 3.08%.

What about the viability, T/C [22] of the same molecule?
The viability, T/C was 2.47%.

And the viability, T/C [23]?
The viability, T/C was 2.75%.

And the viability, T/C [24]?
The viability, T/C was 1.97%.

What about the viability, T/C [7] of the same molecule?
The viability, T/C was 1.05%.

And the viability, T/C [8]?
Its viability, T/C is 1.34%.

What about the viability, T/C [25] of the same molecule?
Its viability, T/C is 2.72%.

What about the viability, T/C [26] of the same molecule?
Its viability, T/C is 2.08%.

And the viability, T/C [27]?
Its viability, T/C is 1.09%.

And the viability, T/C [28]?
The viability, T/C was 1.14%.

What about the viability, T/C [9] of the same molecule?
Its viability, T/C is 2.12%.

And the viability, T/C [10]?
Its viability, T/C is 2.2%.

And the viability, T/C [29]?
The viability, T/C was 3.37%.

And the viability, T/C [30]?
Its viability, T/C is 1.88%.

What about the viability, T/C [31] of the same molecule?
The viability, T/C was 1.71%.

What about the viability, T/C [32] of the same molecule?
The viability, T/C was 1.79%.

What about the viability, T/C [11] of the same molecule?
The viability, T/C was 0.96%.

And the viability, T/C [12]?
Its viability, T/C is 0.85%.

And the viability, T/C [33]?
Its viability, T/C is 1.06%.

And the viability, T/C [34]?
Its viability, T/C is 1.19%.

What about the viability, T/C [35] of the same molecule?
The viability, T/C was 0.9%.

And the viability, T/C [36]?
Its viability, T/C is 0.79%.

Which results are given for O=c1[nH]cc(F)c(=O)[nH]1 + CN1CCN(c2cc(C(=O)Nc3cc4cc(-c5cnn(C)c5)ccc4cn3)ccn2)CC1?
IC50 (second compound 0.0316 µM): 2920 nM; IC50 (second compound 0.1 µM): 362 nM; IC50 (second compound 0.316 µM): < 31.6 nM; IC50 (second compound 1 µM): < 31.6 nM; IC50 (second compound 3.16 µM): < 31.6 nM; IC50 (second compound 10 µM): < 31.6 nM; viability, T/C [1]: 113%; viability, T/C [2]: 117%; viability, T/C [13]: 109%; viability, T/C [14]: 76.9%; viability, T/C [15]: 50.8%; viability, T/C [16]: 31.9%; viability, T/C [3]: 69.3%; viability, T/C [4]: 57.1%; viability, T/C [17]: 58.1%; viability, T/C [18]: 38.1%; viability, T/C [19]: 27.5%; viability, T/C [20]: 20.5%; viability, T/C [5]: 6.26%; viability, T/C [6]: 5.02%; viability, T/C [21]: 5.2%; viability, T/C [22]: 4.61%; viability, T/C [23]: 4.43%; viability, T/C [24]: 3.27%; viability, T/C [7]: 1.65%; viability, T/C [8]: 2.05%; viability, T/C [25]: 5.56%; viability, T/C [26]: 1.25%; viability, T/C [27]: 1.55%; viability, T/C [28]: 1.14%; viability, T/C [9]: 4.69%; viability, T/C [10]: 2.74%; viability, T/C [29]: 3.16%; viability, T/C [30]: 2.23%; viability, T/C [31]: 2.22%; viability, T/C [32]: 2.26%; viability, T/C [11]: 1.91%; viability, T/C [12]: 1.38%; viability, T/C [33]: 1.3%; viability, T/C [34]: 3.91%; viability, T/C [35]: 1.9%; viability, T/C [36]: 2.3%
